Broadly, the IC50 is the concentration that inhibits the measured activity by half. One may read the Ki as the equilibrium dissociation constant of an inhibitor or competing ligand from its target.

Read-outs that look alike come from different tables or passages of the source.

The target of assay [1] is PvSUB1 Dabsyl Edans substrate (Plasmodium vivax).
For assay [2], the target named is PfSUB1 Dabsyl Edans substrate (Plasmodium falciparum).
Assay [3] relates to SERA5 maturation by SUB1. The assay can be described thus: Inhibition of maturation of SERA5 (western blot) in synchronized P. falciparum culture. The class given is cell-based, Plasmodium falciparum. The following applies: compounds 90 μM, E64 10 μM; 12 hr, serum-free medium; western blot mAb 24C6.1F1. How it is done:
(§1) Next, the selected SUB1 inhibitors were evaluated biologically for their impact on P. falciparum 3D7 stage-specific ex vivo culture. […] In vitro synchronized culture of P. falciparum composed of 0.5% of segmented schizonts (To) was cultivated for 12 hr in serum-free medium in the absence (T12) or presence of DMSO (0.9% v/v) (lane DMSO). Lanes A/G1, A/G6, B/H5 correspond to parasites incubated with 90 μM of corresponding compounds. Lanes E64 and RBC correspond to parasites cultured in presence of E64 (10 μM) and uninfected erythrocytes respectively. Parasite extracts and culture supernatants were analyzed by western blot with mAb 24C6.1F1. SERA5 126 kDa precursor and its processed forms of 73, 56 and 50 kDa are indicated. […] Segmented schizonts (starting material, To) were cultivated for 12 hr in serum-containing medium and their transition to newly formed trophozoites-stages in presence of 0.9% DMSO (DMSO) was analysed by flow cytometry using YOYO1 Facs technique (Li et al, Cytometry, 71A, 297-307, 2007). Gates were selected to exclude uninfected erythrocytes and converted to two-dimensional plots illustrating the consequence of the presence of tested compounds on the arrest of schizogony. All compounds were tested at 90 μM, except E64 tested at 10 μM.

Assay [4] relates to P. falciparum (3D7 clone) segmented schizonts. The assay can be described thus: Merozoite egress/invasion, flow cytometry (YOYO-1) on segmented schizonts. The assay is classed as cell-based, Plasmodium falciparum. The following applies: 90 μM, 12 hr, serum-containing medium. As for the experimental part:
as §1, with “24C6.1F1.” for “24C6.1F1. SERA5 126 kDa precursor and its processed forms of 73, 56 and 50 kDa are indicated.”, “Gates were selected to exclude uninfected erythrocytes and converted to two-dimensional plots illustrating the consequence of the presence of tested compounds on the arrest of schizogony. All compounds were tested at 90 μM, except E64 tested at 10 μM.” left out
A synchronised culture composed of segmented schizonts of P. falciparum (3D7 clone) at 0.5% parasitemia and 1% hematocrit is performed in a 24 wells plate. […] The progress of the parasitaemia from segmented schizont to newly formed trophozoites was assessed by flow cytometry after staining samples by the DNA-binding fluorescent dye, YOYO-1™, as previously described by Li and colleagues [2007, Cytometry A 71: 297-307.] with some modifications. […]
In general terms: A flow cytometer gives signals particle by particle.

Assay [5] concerns P. falciparum 3D7 strain. The assay can be described thus: In vitro drug susceptibility assay on P. falciparum culture, clone 3D7. The class given is cell-based. The following applies: Plasmodium falciparum. As for the experimental part: FIG. 2B depicts the FRET-based specific enzymatic assay which was used. In this particular case the assay consists in measuring fluorescence of tagged peptidic substrate of SUB1. […] Molecules where thus tested and their Ki (inhibition constant) was determined on the PvSUB1 recombinant enzyme. FIG. 2C provides determination of the Ki of the AG6, AG1 and BH5 compounds for the recombinant PvSUB1 enzyme with the Dabsyl Edans substrate. […] The final mixture was distributed in duplicate into a 384-well black microtiter plate (Thermo Scientific) and the fluorescence was monitored. The slope of the linear part of the kinetic was determined in an Excel™ (Microsoft) spreadsheet. The Ki and EC50 values expressed in μM were determined using GraphPad Prism™ software.
Parasites were incubated at 37° C. in an atmosphere composed of 5% O2, 5% CO2 and 90% N2. […] IC50/EC50 have been determined following nonlinear regression analysis using HN-NonLin V1.1 software (malaria.farch.net).

Assay [6] concerns the target recombinant PvSUB1 (Plasmodium vivax, UniProt E6Y8B9). Nature of the assay: FRET-based PvSUB1 enzymatic assay, Ki determination. As to conditions: Dabsyl Edans substrate; mean of at least three independent experiments ± SEM. The class given is biochemical. How it is done: FIG. 2B depicts the FRET-based specific enzymatic assay which was used. In this particular case the assay consists in measuring fluorescence of tagged peptidic substrate of SUB1. An uncleaved peptide has low intensity emission whereas, when the peptide is cleaved by SUB1, high intensity emissions are measured. […] Molecules where thus tested and their Ki (inhibition constant) was determined on the PvSUB1 recombinant enzyme. FIG. 2C provides determination of the Ki of the AG6, AG1 and BH5 compounds for the recombinant PvSUB1 enzyme with the Dabsyl Edans substrate. Ten different concentrations, ranging from 300 μM to 585 nM following sequential 1:2 dilutions, of the compounds were tested using the PvSUB1 enzymatic assay. The final mixture was distributed in duplicate into a 384-well black microtiter plate (Thermo Scientific) and the fluorescence was monitored. The slope of the linear part of the kinetic was determined in an Excel™ (Microsoft) spreadsheet. The Ki and EC50 values expressed in μM were determined using GraphPad Prism™ software. […]
For the kinetic assays we used the recombinant PvSUB1/PfSUB1 enzymes and specific peptide substrates whose sequence are deduced from the auto-maturation site of each one: KLVGADDVSLA (SEQ ID NO: 9), which cleavage occurs between the two aspartates for PvSUB1 and KLVSADNIDIS (SEQ ID NO: 11) which is cleaved between the aspartate and the asparagine for PfSUB1. […] The final mixture was distributed in duplicate into a 384-well black microtiter plate (Thermo Scientific) and the fluorescence was monitored every 3 minutes for 90 min at 37° C. in a Labsystems Fluoroskan Ascent™ spectrofluorometer or a Tecan Infinite M1000™ spectrofluorometer using the excitation and emission wavelengths of […] or 620/680 nm for the Dabsyl/Edans or DYQ660/DY630 substrates respectively. The slope of the linear part of the kinetic was determined in an Excel™ (Microsoft) spreadsheet. Every steps of the enzymatic assay were done on ice to make sure that the protein was not active before the measure of the fluorescence. […]

For assay [7], the system named is P. falciparum Dd2 strain. The assay can be described thus: In vitro drug susceptibility assay on P. falciparum culture, clone Dd2. The assay is classed as cell-based. The following applies: Plasmodium falciparum, DD2, read-out: IC50 on P. falciparum Dd2 strain.
Setting [8] is: chloroquino-sensitive clone 3D7, mean ± SEM, read-out: IC50 on P. falciparum 3D7 strain.

With “recombinant enzymatically active form of Plasmodium vivax SUB1-Belem (PvSUB1-Belem) (enzyme)”, in assay [1], the apparent Km, FRET-based cleavage assay was 19.7 µM.
Take “recombinant Plasmodium falciparum SUB1 (PfSUB1) (enzyme)”: the apparent Km, FRET-based cleavage assay in assay [2] was 30.2 µM.
As for `CC(C)C[C@H](NC(=O)[C@H]1O[C@@H]1C(=O)O)C(=O)NCCCCN=C(N)N` [Compound E64], in assay [3], the “Maturation of SERA5 by SUB1 successive cleavages” value is “inactive”.
Regarding `COc1cccc(C2c3c(-c4ccc(F)cc4)n[nH]c3C(=O)N2c2ccccc2)c1` (stereo not shown) [A/G6], the “Arrest of schizogony / merozoite egress” value in assay [4] was “able to maintain the parasites to the schizonts stage”. The figures for the IC50 in assay [5] (setting [8]) and in assay [7] were 17.7 ± 1.7 µM and 14.8 ± 6.7 µM, respectively. Also, in assay [6], the Ki is 8.2 ± 1.9 µM.
For the molecule `O=C(Cn1ncc2c3ccccc3n(Cc3cccc(Cl)c3)c2c1=O)N1CCc2ccccc21` [B/H5], the IC50 in assay [5] (setting [8]) turned out to be 16.9 ± 3.3 µM; in assay [7], 13 ± 8.1 µM. The Ki in assay [6] turned out to be 1.4 ± 1 µM.
For `O=C(C[n+]1cccc(C(=O)Nc2ccccc2)c1)c1ccc(NC(=O)c2ccccc2)cc1` [A/G1], the “Arrest of schizogony / merozoite egress” value in assay [4] is on record as “able to maintain the parasites to the schizonts stage”. For the same molecule, the IC50 in assay [5] (setting [8]) was found to be 4.7 ± 1.8 µM; in assay [7], 3.5 ± 1.7 µM. For the same molecule, the Ki in assay [6] is 5.5 ± 2.4 µM.
As for `CCN(CC)CCCC(C)Nc1ccnc2cc(Cl)ccc12` (stereo not shown) [chloroquine, reference compound], the IC50 in assay [5] (3D7, read-out: IC50 on P. falciparum 3D7 strain) stood at 0.0043 ± 0.0013 µg/mL; in assay [7], 0.0355 ± 0.0137 µg/mL.

The record behind these values is patent US9404142B2, “Screening methods for identifying Plasmodium proteases inhibitors” (Institut Pasteur, priority 2010, dated 2016).
